Laboratory results published in patent publication US20250019652A1, “PRODUCTION METHOD FOR SHEET-LIKE RETINAL TISSUE” (RIKEN, priority 2021, published 2025).

How the values were obtained:
Type in all cases: cell-based, human
[1] = test system: single cells dispersed from KhES-1- and 1231A3-derived aggregates; assay: Aggregate proliferation-promoting factor: aggregate area in suspension culture with Y-27632 (Example 2); settings: SAG 300 nM or CHIR99021 3 μM in addition to 10 μM Y-27632; Day 1, 7, 14
Description: The aggregates of Day 20 (1231A3) and Day 27 (KhES-1) from initiation of the suspension culture prepared as in Example 1 were washed with PBS, and a neuronal cell dispersion solution (manufactured by FUJIFILM Wako Pure Chemical Corp.) was added. After incubation at 37° C., they were dispersed into single cells by pipetting. These cells were suspended in 100 μL of a serum-free medium containing 10 μM Y-27632 (FUJIFILM Wako Pure Chemical Corp.) so as to become 2 to 5×10^5 cells per well of a non-cell adhesive 96-well culture plate (trade name: PrimeSurface 96-well V-bottom plate, manufactured by Sumitomo Bakelite Co., Ltd.), and suspension-cultured at 37° C. and 5% CO2. […] The reformed states of the aggregates were observed under a bright field microscope and a fluorescence microscope (BZ-X810 manufactured by Keyence Corp.) on Day 1, Day 7, and Day 14 after suspension culture for aggregate reforming. The areas of the aggregates were measured in Image J. The results of the KhES-1-derived cells are shown in FIG. 6 (an average value from 12 […] measured). The results of the 1231A3-derived cells in which the reformed states of the aggregates of Day 1 after suspension culture were observed are shown in FIG. 7.

[2] = test system: single cell suspension of dispersed retinal cells (KhES-1-derived); assay: Layer structure formation-promoting factor: reformed aggregates, immunostained sections (Example 3); settings: 3 μM CHIR99021
Description: The aggregates of Day 26 from initiation of the suspension culture prepared as in Example 1 were washed with PBS, and a neuronal cell dispersion solution (manufactured by FUJIFILM Wako Pure Chemical Corp.) was added. After incubation at 37° C., they were dispersed into single cells by pipetting. These cells were suspended in 100 μL of a serum-free medium so as to become 3.0×10^4 cells per well of a non-cell adhesive 96-well culture plate (trade name: PrimeSurface 96-well V-bottom plate, manufactured by Sumitomo Bakelite Co., Ltd.), and suspension-cultured at 37° C. and 5% CO2.
The aggregates of Day 15 (corresponding to Differentiation Day 41) and Day 28 (corresponding to Differentiation Day 54) after suspension culture for aggregate reforming were fixed in 4% PFA, and frozen sections were prepared. These frozen sections were subjected to immunostaining using DAPI and anti-Chx10 antibody (trade name: Anti CHX10 Antibody, Exalpha Biologicals Inc.), anti-β-catenin antibody (R&D Systems, Inc.), anti-collagen IV antibody (Abcam plc), anti-Zo-1 antibody (Invitrogen Corp.), anti-Ki67 antibody (Becton, Dickinson and Company), anti-Pax6 antibody (BioLegend, Inc.), anti-RxR-γ (RxRg) antibody (Spring Bioscience Corp.), anti-CRX antibody (Abnova Corp.), anti-NRL antibody (R&D Systems, Inc.), anti-recoverin antibody (manufactured by Proteintech Group, Inc.), anti-Islet-1 antibody (Developmental Studies Hybridoma Bank (DSHB)), anti-GS antibody (Sigma-Aldrich Co., LLC), anti-Brn3 antibody (Santa Cruz Biotechnology), and anti-calretinin antibody (R&D Systems, Inc.).
These immunostained sections were observed under a bright field microscope and a fluorescence microscope (BZ-X810 manufactured by Keyence Corp.) and a confocal laser scanning fluorescence microscope (SP-8 manufactured by Leica), and the results are shown in FIGS. 11 to 20. […] From FIGS. 19 and 20, it was confirmed that RxR-Y(RxRg)-positive and CRX-positive cone progenitor cells and recoverin-positive and CRX-positive photoreceptor progenitor cells were differentiated, and the differentiation of Islet-1-positive and Brn3-positive retinal ganglion cells and calretinin-positive amacrine cells was also confirmed.

[3] = test system: retinal cells (NR) dispersed into single cells (KhES-1-derived); assay: Seeding onto Transwell: confirmation of effect of CHIR99021 (Example 9); settings: CHIR99021 5 μM or 3 μM with Y-27632 (and SAG); Day 14
Description: (§1) The aggregates of Days 15 to 30 from initiation of the suspension culture prepared as in Example 1 were washed with PBS, and a neuronal cell dispersion solution (manufactured by FUJIFILM Wako Pure Chemical Corp.) was added. After incubation at 37° C., they were dispersed into single cells by pipetting.
When cell sheets obtained on Culture Day 14 for aggregate reforming were observed, it was confirmed that the cells were engrafted under all the conditions (FIG. 29). Accordingly, these cell sheets were fixed in 4% PFA, and frozen sections were prepared. These frozen sections were subjected to immunostaining using DAPI and anti-Zo-1 antibody (trade name: Anti Zo-1 Antibody, manufactured by Invitrogen Corp.) and anti-collagen IV antibody (Abcam plc). These immunostained sections were observed under a confocal laser scanning fluorescence microscope.

[4] = test system: retinal cells (NR) dispersed into single cells (KhES-1-derived, dd33); assay: Seeding onto Transwell: concentration and addition period of CHIR99021 (Example 10); settings: 1 μM to 9 μM CHIR99021 for 3 days to 9 days
Description: as §1, with “33 days (dd33) after the start” for “Days 15 to 30 from initiation”, “pipetting. […] 3 days or later from seeding, the medium was replaced once every 3 to 4 days.” for “pipetting.”
Accordingly, these cell sheets were fixed in 4% PFA, and frozen sections were prepared. These frozen sections were subjected to immunostaining using DAPI.

Cc1c[nH]c(-c2cnc(NCCNc3ccc(C#N)cn3)nc2-c2ccc(Cl)cc2Cl)n1 [CHIR99021]
size of reformed aggregates versus only Y-27632 [1]: larger aggregates were reformed
reforming of aggregates ([2]; Day 1, Day 14, Day 28): aggregates were reformed
apical-basal polarity (Zo-1, collagen IV) ([2]; Day 15 and Day 28 sections): epithelial tissue having apical and basal polarities was formed
layer structure formation (Rx::Venus, Chx10) ([2]; Day 15 and Day 28 sections): a layer structure where Rx::Venus-positive and Chx10-positive neural retinal progenitor cells were contained was formed
apical and basal polarity of sheet [3]: sheets of Rx::Venus-positive retinal progenitor cells having apical and basal polarities were formed again
reforming of thick sheets [4]: thick sheets of Rx::Venus-positive retinal progenitor cells were reformed
